According to patent US10961211B2, “Isotopically-stabilized tetronimide compounds” (Midwestern University, priority 2019, dated 2021):

Experiment: LCMS analysis of deuterium/hydrogen exchange in solution
Format: physicochemical
Details: NMR sample in dmso-d6, standing at room temperature
Protocol: A sample of rac-1 (440 mg, 1.07 mmol) was stirred in THF (10 mL) in the presence of K2CO3 (645 mg, 4.69 mmol; 4.4 eq.) and D2O (1.77 g, 88.5 mmol; 82.6 eq.) at room temperature. The reaction progress was monitored by LCMS and Mass analysis. After 9 days a sample was taken and concentrated under reduced pressure to give 96-100% pure (LCMS, UV 215 and 254 nm respectively) racemic 1-d3 (38.9 mg) according to ^1H-NMR analysis. […] Calcd. for C18H11D3F3NO5S M: 416.39

NC1=C(OS(=O)(=O)Cc2ccccc2)C(=O)C(c2ccc(C(F)(F)F)cc2)O1 (racemic) [Compound 1-d3, 2-amino-4-oxo-5-(4-(trifluoromethyl)phenyl)-4,5-dihydrofuran-3-yl phenylmethanesulfonate]
deuterium/hydrogen exchange (isotopic stability): deuterium loss took place in dmso-d6
